Square brackets hold non-standard residues; d marks the D form. Ends that are not written are not given here. Peptide text beside a SMILES is read from it. pS = N[C@@H](COP(=O)(O)O)C(=O)O
T1: 14-3-3ζ (Homo sapiens, UniProt P63104)
T1 construct: Both full-length 14-3-3ζ and 14-3-3ζΔC12 were expressed as N-terminally His-tagged protein; His tag (TEV-cleavable) (N, cleaved yes); made in house; host or cells: Escherichia coli BL21 (DE3) pLysS
T1 sequence (P63104 1-245): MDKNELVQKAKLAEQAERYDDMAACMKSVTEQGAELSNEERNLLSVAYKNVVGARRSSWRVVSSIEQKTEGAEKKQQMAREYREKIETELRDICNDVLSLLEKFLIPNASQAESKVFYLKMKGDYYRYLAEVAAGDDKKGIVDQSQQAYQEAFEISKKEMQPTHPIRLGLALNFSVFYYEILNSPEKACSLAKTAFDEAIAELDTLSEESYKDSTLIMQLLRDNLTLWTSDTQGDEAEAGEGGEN

T2: 14-3-3ζ (human, full-length) (human, UniProt P63104 1-245)
T2 construct: N-terminal glycine retained after TEV cleavage of the His tag; 14-3-3ζ, human, ORF bought from GeneCopoeia, in Gateway pDEST17; full-length; Dimer in the crystal; the ITC stoichiometry counts on the 14-3-3 monomer; also called WT 14-3-3ζ; source: E. coli BL21 (DE3) pLysS, purified (Ni Sepharose, TEV cleavage, second Ni Sepharose pass); not shown: His tag, N-terminal, cleaved
T2 sequence: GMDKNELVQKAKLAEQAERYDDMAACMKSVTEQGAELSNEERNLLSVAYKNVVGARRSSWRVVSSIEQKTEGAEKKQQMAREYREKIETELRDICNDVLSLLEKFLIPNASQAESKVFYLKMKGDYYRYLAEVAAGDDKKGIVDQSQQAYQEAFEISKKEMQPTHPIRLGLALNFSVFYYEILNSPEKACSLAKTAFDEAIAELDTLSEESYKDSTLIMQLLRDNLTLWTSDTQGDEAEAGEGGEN


Columns and labels:
[1] = molecular target: T1, 14-3-3ζ; experiment: ITC of Cby peptides titrated into 14-3-3ζ; format: binding; conditions: for n (binding stoichiometry of monomeric 14-3-3 and Cby peptide): 25°C; for T∆S / ∆G / ∆H / TΔS / ΔG / ΔH: 298.15 K; for T∆S / ∆G / ∆H: duplicate set (S1 Table); for TΔS / ΔG / ΔH: pH 6.8, Table 1 set of duplicate experiments
Text: The human14-3-3ζ ORF purchased from GeneCopoeia was transferred into Gateway pDEST17 vector (Invitrogen). The 14-3-3ζΔC12, where the 12 C-terminal residues were deleted, was then generated from the full-length construct using QuikChange II Site-Directed Mutagenesis Kit (Strategene). Both full-length 14-3-3ζ and 14-3-3ζΔC12 were expressed as N-terminally His-tagged protein in Escherichia coli (E. coli) BL21 (DE3) pLysS in M9 medium. For unlabeled protein, protein expression was induced at an O.D.600 of 0.9 by adding 0.75 mM IPTG at 18°C for 24 h. The ^15N, ^13C, ^2H labeled 14-3-3ζΔC12 was produced by growing E. coli in deuterated M9 medium. Cells adapted to 70% D2O were used to inoculate a 1 L culture of M9 prepared in 100% D2O. Cells were grown at 37°C and overexpression was induced at an O.D.600 of 0.6 with 0.75 mM IPTG. After a 60-h induction at 18°C, the cells were harvested. All 14-3-3ζ constructs used in this study were purified from the crude lysate by affinity chromatography using Ni Sepharose Fast Flow beads (Amersham Biosciences). The tag was then cleaved by overnight incubation with His-tagged tobacco etch virus (TEV) protease at 25°C. The cleaved 14-3-3ζ, which retains an N-terminal glycine, was purified by passing the mixture through Ni Sepharose Fast Flow beads. The final yields for the 14-3-3ζ proteins were ~50 mg per L of M9 media (including deuterated media).
The Cby peptides used in this study were purchased from GenScript USA Inc. and the TUFTS University Core Facility. From GenScript USA Inc.: Cby 13-mer (NH2-^12KTPPRKSASLSNL^24-COOH), Cby S20D 13-mer (NH2-^12KTPPRKSADLSNL^24-COOH), Cby S20E 13-mer (NH2-^12KTPPRKSAELSNL^24-COOH), pCby 13-mer (NH2-^12KTPPRKSApSLSNL^24-COOH) and pCby 18-mer ((NH2-^12KTPPRKSApSLSNLHSLDR^29-COOH). From TUFTS: pCby 7-mer (Ac-^16RKSApSLS^22-NH2), pCby 11-mer (NH2-^12KTPPRKSApSLS^22-NH2), pCby S22P 7-mer (Ac-^16RKSApSLP^22-NH2), pCby S22P 13-mer (NH2-^12KTPPRKSApSLPNL^24-COOH) and pCby S22P 18-mer ([…]). Peptides were dissolved and dialyzed in 50 mM sodium phosphate, 100 mM NaCl at pH 6.8 for ITC and NMR experiments.
ITC experiments were performed on a VP-ITC instrument (MicroCal) at 25°C. The protein and peptide samples were dialyzed into a buffer containing 50 mM sodium phosphate, 100 mM NaCl, 1 mM DTT at pH 6.8 and degassed before the experiments. In a typical experiment, 5 μL aliquots of ~1–2 mM peptide were titrated stepwise into the 1.4 mL sample cell containing ~100–200 μM 14-3-3ζ. The association constant (Ka), molar binding stoichiometry (n) and the binding enthalpy (ΔH), entropy (ΔS) and Gibbs free energy (ΔG) were determined by fitting the binding isotherm to a one-site model with MicroCal Origin7 software. All ITC experiments were performed in duplicate. A duplicate set of thermodynamic derived binding parameters are found in S1 Table. Peptide and protein concentrations were determined from amino acid analysis (Amino Acid Analysis Facility, SickKids, Toronto, ON).

[2] = molecular target: T2, 14-3-3ζ (human, full-length); experiment: ITC; VP-ITC, 25°C; ~1-2 mM peptide titrated in 5 uL aliquots into ~100-200 uM 14-3-3ζ in the cell; 50 mM sodium phosphate, 100 mM NaCl, 1 mM DTT, pH 6.8; one-site model; in duplicate; conditions: both partners purified
[3] = 50 mM sodium phosphate, 100 mM NaCl, 1 mM DTT, pH 6.8, one-site model, Table 1 set of duplicate experiments
[4] = pH 6.8, duplicate set (S1 Table)

Molecule | n (binding stoichiometry of monomeric 14-3-3 and Cby peptide) [1, 3] | n (binding stoichiometry of monomeric 14-3-3 and Cby peptide) [1, 4] | T∆S [1] [kJ/mol] | ∆G [1] [kJ/mol] | ∆H [1] [kJ/mol] | TΔS [1] [kJ/mol] | ΔG [1] [kJ/mol] | ΔH [1] [kJ/mol] | greater affinity compared to the Cby 7-mer (fold, in words) [1] | Kd ([1]; 25°C (298.15 K), 50 mM sodium phosphate, 100 mM NaCl, 1 mM DTT, pH 6.8, one-site model, Table 1 set of duplicate experiments) [µM] | Kd [2] [µM] | dH [2] [kJ/mol] | stoichiometry N [2]
CC(=O)N[C@@H](CCCNC(=N)N)C(=O)N[C@@H](CCCCN)C(=O)N[C@@H](CO)C(=O)N[C@@H](C)C(=O)N[C@@H](COP(=O)(O)O)C(=O)N[C@@H](CC(C)C)C(=O)N1CCC[C@H]1C(N)=O [Cby 7-mer S22P] (Ac-RKSA[pS]LP-NH2) | 1.03 | 1.02 | 5.4 | -31.4 ± 0.084 | -26 ± 0.084 | 5.82 | -31.6 ± 0.042 | -25.8 ± 0.042 | – | – | – | – | –
KTPPRKSA[pS]LPNL (Chibby (Cby), human, residues 12-24 with S22P; free NH2 and COOH ends; also called Cby 13-mer S22P; source: synthetic peptide, bought: TUFTS University Core Facility) [pCby S22P 13-mer] | – | – | – | – | – | – | – | – | – | – | 1.1 | -19.41 ± 0.0418 | 1.06
KTPPRKSA[pS]LS-NH2 (N-terminus assumed; SMILES CC(C)C[C@H](NC(=O)[C@H](COP(=O)(O)O)NC(=O)[C@H](C)NC(=O)[C@H](CO)NC(=O)[C@H](CCCCN)NC(=O)[C@H](CCCNC(=N)N)NC(=O)[C@@H]1CCCN1C(=O)[C@@H]1CCCN1C(=O)[C@@H](NC(=O)[C@@H](N)CCCCN)[C@@H](C)O)C(=O)N[C@@H](CO)C(N)=O, Chibby (Cby), human, residues 12-22; free NH2 end; source: synthetic peptide, bought: TUFTS University Core Facility) [pCby 11-mer] | – | – | – | – | – | – | – | – | – | – | 17.5 | -13.64 ± 0.0837 | 0.95
Ac-RKSA[pS]LS-NH2 (SMILES CC(=O)N[C@@H](CCCNC(=N)N)C(=O)N[C@@H](CCCCN)C(=O)N[C@@H](CO)C(=O)N[C@@H](C)C(=O)N[C@@H](COP(=O)(O)O)C(=O)N[C@@H](CC(C)C)C(=O)N[C@@H](CO)C(N)=O, also called 16RKSA(pS)LS22; pCby WT 7-mer; source: synthetic peptide, bought: TUFTS University Core Facility) [pCby 7-mer] | – | – | – | – | – | – | – | – | – | – | 43.5 | -14 ± 0.251 | 1.01
Ac-RKSA[pS]LP-NH2 (SMILES CC(=O)N[C@@H](CCCNC(=N)N)C(=O)N[C@@H](CCCCN)C(=O)N[C@@H](CO)C(=O)N[C@@H](C)C(=O)N[C@@H](COP(=O)(O)O)C(=O)N[C@@H](CC(C)C)C(=O)N1CCC[C@H]1C(N)=O, Chibby (Cby), human, residues 16-22 with S22P; also called Cby 7-mer S22P; 16RKSA(pS)LP22; source: synthetic peptide, bought: TUFTS University Core Facility) [pCby S22P 7-mer] | – | – | – | – | – | – | – | – | – | – | 2.9 | -25.77 ± 0.0418 | 1.03

Now from value to molecule:

n (binding stoichiometry of monomeric 14-3-3 and Cby peptide) [1, 3] | n (binding stoichiometry of monomeric 14-3-3 and Cby peptide) [1, 4] | T∆S [1] [kJ/mol] | ∆G [1] [kJ/mol] | ∆H [1] [kJ/mol] | TΔS [1] [kJ/mol] | ΔG [1] [kJ/mol] | ΔH [1] [kJ/mol] | greater affinity compared to the Cby 7-mer (fold, in words) [1] | Kd ([1]; 25°C (298.15 K), 50 mM sodium phosphate, 100 mM NaCl, 1 mM DTT, pH 6.8, one-site model, Table 1 set of duplicate experiments) [µM] | Kd [2] [µM] | dH [2] [kJ/mol] | stoichiometry N [2] | Molecule
1.01 | 0.94 | 9.2 | -24.7 ± 0.084 | -15.5 ± 0.17 | 10.9 | -24.9 ± 0.13 | -14 ± 0.25 | – | – | – | – | – | CC(=O)N[C@@H](CCCNC(=N)N)C(=O)N[C@@H](CCCCN)C(=O)N[C@@H](CO)C(=O)N[C@@H](C)C(=O)N[C@@H](COP(=O)(O)O)C(=O)N[C@@H](CC(C)C)C(=O)N[C@@H](CO)C(N)=O [Cby 7-mer] (Ac-RKSA[pS]LS-NH2)
0.95 | 0.96 | 13.5 | -27.2 ± 0.084 | -13.7 ± 0.084 | 13.5 | -27.2 ± 0.084 | -13.6 ± 0.084 | more than two-fold | 17.5 ± 0.6 | – | – | – | CC(C)C[C@H](NC(=O)[C@H](COP(=O)(O)O)NC(=O)[C@H](C)NC(=O)[C@H](CO)NC(=O)[C@H](CCCCN)NC(=O)[C@H](CCCNC(=N)N)NC(=O)[C@@H]1CCCN1C(=O)[C@@H]1CCCN1C(=O)[C@@H](NC(=O)[C@@H](N)CCCCN)[C@@H](C)O)C(=O)N[C@@H](CO)C(N)=O [Cby 11-mer] (H-KTPPRKSA[pS]LS-NH2)
1.06 | 1.02 | 13.9 | -33.6 ± 0.084 | -19.7 ± 0.042 | 14.6 | -34 ± 0.084 | -19.4 ± 0.042 | – | – | – | – | – | CC(C)C[C@H](NC(=O)[C@H](CC(N)=O)NC(=O)[C@@H]1CCCN1C(=O)[C@H](CC(C)C)NC(=O)[C@H](COP(=O)(O)O)NC(=O)[C@H](C)NC(=O)[C@H](CO)NC(=O)[C@H](CCCCN)NC(=O)[C@H](CCCNC(=N)N)NC(=O)[C@@H]1CCCN1C(=O)[C@@H]1CCCN1C(=O)[C@@H](NC(=O)[C@@H](N)CCCCN)[C@@H](C)O)C(=O)O [Cby 13-mer S22P] (H-KTPPRKSA[pS]LPNL-OH)
– | – | – | – | – | – | – | – | – | – | 21.3 | -6.53 ± 0.209 | 0.99 | KTPPRKSA[pS]LSNAHSLDR (Chibby (Cby), human, residues 12-29 with L24A; Not in the methods' list of peptides; also called Cby L24A 18-mer; source: synthetic peptide) [Cby 18-mer L24A (phosphorylated)]

Source: paper PMC4409382, “Structural Analysis of the 14-3-3ζ/Chibby Interaction Involved in Wnt/β-Catenin Signaling” (PLoS ONE, 2015)
